Experimental data as given in ChEMBL document CHEMBL4431298 (Medchemcomm, 2016).
Blank lines part the entries; values can stand above or below the compound they belong to. The source made the active and inactive calls. No cut-off for these calls is given here.

Key:
Assay type in all cases: cell-based
Ferroportin [1] = molecular target: T1, Ferroportin (Homo sapiens, UniProt Q9NP59); experiment: (§1) Inhibition of recombinant human SLC40A1 expressed in human T-REx-293 cells assessed as reduction in ferroportin internalization incubated for 20 hrs by luciferase reporter gene assay
T1 sequence (Q9NP59 whole entry): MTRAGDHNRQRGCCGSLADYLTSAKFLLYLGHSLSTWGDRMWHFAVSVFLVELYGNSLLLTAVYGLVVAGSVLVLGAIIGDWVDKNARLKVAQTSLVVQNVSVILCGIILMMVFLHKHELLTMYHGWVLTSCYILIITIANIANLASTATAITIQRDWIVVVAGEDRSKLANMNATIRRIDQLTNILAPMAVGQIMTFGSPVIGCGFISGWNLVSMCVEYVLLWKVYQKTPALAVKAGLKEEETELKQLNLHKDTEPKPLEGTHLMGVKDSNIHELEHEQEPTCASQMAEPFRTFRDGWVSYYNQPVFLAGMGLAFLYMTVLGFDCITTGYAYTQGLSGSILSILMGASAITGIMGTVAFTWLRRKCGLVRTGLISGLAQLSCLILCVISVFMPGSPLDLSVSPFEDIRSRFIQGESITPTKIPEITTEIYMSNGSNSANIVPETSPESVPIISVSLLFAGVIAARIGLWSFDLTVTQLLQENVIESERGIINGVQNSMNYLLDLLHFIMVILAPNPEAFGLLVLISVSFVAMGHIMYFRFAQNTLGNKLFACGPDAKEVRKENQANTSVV

[2] = molecular target: T2, Ferroportin (Homo sapiens) (UniProt Q9NP59); experiment: as §1
T2 sequence (whole entry): T1 sequence (Q9NP59 whole entry)

Ferroportin [3] = molecular target: T1, Ferroportin; experiment: Inhibition of human GFP-tagged SLC40A1 expressed in HEK293 cells assessed as ferroportin internalization by fluorescence microscopic analysis
[4] = molecular target: T2, Ferroportin (Homo sapiens); experiment: (§2) Inhibition of recombinant human C-terminal nano luciferase-tagged SLC40A1 expressed in human T-REx-293 cells assessed as ferroportin internalization incubated for 20 hrs measured at 459 nanometer by Hoechst staining based cellomics arrayscan imaging analysis
Ferroportin [5] = molecular target: T1, Ferroportin; experiment: as §2
[6] = molecular target: T2, Ferroportin (Homo sapiens); experiment: Binding affinity to recombinant human C-terminal nano luciferase-tagged SLC40A1 expressed in human T-REx-293 cells assessed as internalization of compound-ferroportin conjugate at 0.0001 to 0.01 mg/ml incubated for 20 hrs measured at 549 nanometer by Hoechst staining based cellomics arrayscan imaging analysis
[7] = molecular target: T2, Ferroportin (Homo sapiens); experiment: Inhibition of recombinant human C-terminal nano luciferase-tagged SLC40A1 expressed in human T-REx-293 cells assessed as decrease in 55Fe-apotransferrin export at 10 uM preincubated for 24 hrs followed by export buffer and compound addition measured after 5 mins by scintillation counting method
[8] = molecular target: T2, Ferroportin (Homo sapiens); experiment: Inhibition of recombinant human SLC40A1 expressed in human T-REx-293 cells exposed to 4 hrs of doxycycline induction assessed as reduction in ferroportin internalization incubated for 20 hrs by luciferase reporter gene assay relative to control; settings: concentration not given here
[9] = molecular target: T2, Ferroportin (Homo sapiens); experiment: Inhibition of recombinant human SLC40A1 expressed in human T-REx-293 cells exposed to >4 hrs of doxycycline induction assessed as reduction in ferroportin internalization incubated for 20 hrs by luciferase reporter gene assay relative to control; settings: concentration not given here

SMILES: CCCCCCCCCCCCCCCC(=O)NCCCOCCOCCOCCCNC(=O)C[C@H](Cc1ccccc1)NC(=O)[C@H](CCCNC(=N)N)NC(=O)[C@H](CS)NC(=O)[C@H](CCCNC(=N)N)NC(=O)C[C@@H]1CCCN1C(=O)[C@@H](NC(=O)[C@H](Cc1c[nH]cn1)NC(=O)[C@@H](NC(=O)CNCC(=O)O)[C@@H](C)O)C(c1ccccc1)c1ccccc1
EC50 (Ferroportin [1]): 0.021 µM

SMILES: CCCCCCCCCCCCCCCC(=O)NCCCOCCOCCOCCCNC(=O)C[C@H](Cc1ccccc1)NC(=O)[C@H](CCCNC(=N)N)NC(=O)[C@@H](CS)NC(=O)[C@H](CCCNC(=N)N)NC(=O)C[C@@H]1CCCN1C(=O)[C@@H](NC(=O)[C@H](Cc1c[nH]cn1)NC(=O)[C@@H](NC(=O)CNCC(=O)O)[C@@H](C)O)C(c1ccccc1)c1ccccc1
inhibition [2]: Dose-dependent effect

SMILES: CC[C@H](C)[C@H](NC(=O)[C@H](CS)NC(=O)[C@@H](NC(=O)[C@@H]1CCCN1C(=O)[C@H](Cc1ccccc1)NC(=O)[C@H](Cc1c[nH]cn1)NC(=O)[C@@H](NC(=O)[C@H](CC(=O)O)NC(C)=O)[C@@H](C)O)[C@@H](C)CC)C(=O)N[C@@H](Cc1ccccc1)C(=O)NCCOCCOCCOCC(=O)N[C@H](CCCNC(=N)N)C(=O)N[C@H](CCCNC(=N)N)C(=O)N[C@H](CCCCNC(=O)CCCCCNC(=O)CCC1=C(C)C2=Cc3ccc(-c4ccc(OC)cc4)n3[B-](F)(F)[N+]2=C1C)C(=O)O
inhibition [2]: Dose-dependent effect | EC50 (Ferroportin [1]): 0.347 µM | inhibition [4]: Dose-dependent effect | EC50 (Ferroportin [5]): 1.86 µM | Activity [6]: Active

The remaining lines, values ahead:

IC50 (Ferroportin [3]): 0.076 µM
SMILES: CC[C@H](C)[C@H](NC(=O)[C@H](CS)NC(=O)[C@@H](NC(=O)[C@@H]1CCCN1C(=O)[C@H](Cc1ccccc1)NC(=O)[C@H](Cc1cnc[nH]1)NC(=O)[C@@H](NC(=O)[C@H](CC(=O)O)NC(C)=O)[C@@H](C)O)[C@@H](C)CC)C(=O)N[C@@H](Cc1ccccc1)C(=O)O

EC50 (Ferroportin [1]): 0.022 µM
SMILES: CC[C@H](C)[C@@H]1NC(=O)[C@@H](NC(=O)[C@@H](NC(=O)[C@@H]2CCCN2C(=O)[C@H](Cc2ccccc2)NC(=O)[C@H](Cc2c[nH]cn2)NC(=O)[C@@H](NC(=O)[C@@H](N)CC(=O)O)[C@@H](C)O)[C@@H](C)CC)CSSC[C@@H](C(=O)N[C@@H](CCCCN)C(=O)N[C@H](C(=O)O)[C@@H](C)O)NC(=O)[C@@H]2CSSC[C@@H]3NC(=O)[C@@H]4CSSC[C@H](NC(=O)[C@H](Cc5ccccc5)NC1=O)C(=O)N[C@@H](CSSC[C@H](NC(=O)[C@H](CCCCN)NC(=O)[C@H](CO)NC(=O)[C@H](CCCNC(=N)N)NC(=O)[C@H](Cc1c[nH]cn1)NC3=O)C(=O)NCC(=O)N[C@@H](CCSC)C(=O)N2)C(=O)NCC(=O)N4

inhibition [7]: Active | inhibition [2]: Dose-dependent effect | inhibition [8]: 50% | inhibition [9]: 25%
SMILES: CC[C@H](C)[C@@H]1NC(=O)[C@H](NC(=O)[C@@H](NC(=O)[C@@H]2CCCN2C(=O)[C@H](Cc2ccccc2)NC(=O)[C@H](Cc2cnc[nH]2)NC(=O)[C@@H](NC(=O)[C@@H](N)CC(=O)O)[C@@H](C)O)[C@@H](C)CC)CSSC[C@@H](C(=O)N[C@@H](CCCCN)C(=O)N[C@H](C(=O)O)[C@@H](C)O)NC(=O)[C@@H]2CSSC[C@@H]3NC(=O)[C@@H]4CSSC[C@H](NC(=O)[C@H](Cc5ccccc5)NC1=O)C(=O)N[C@@H](CSSC[C@H](NC(=O)[C@H](CCCCN)NC(=O)[C@H](CO)NC(=O)[C@H](CCCNC(=N)N)NC(=O)[C@H](Cc1cnc[nH]1)NC3=O)C(=O)NCC(=O)N[C@@H](CCSC)C(=O)N2)C(=O)NCC(=O)N4
